Columns and labels:
[1] = system: DMT1-deficient Caco-2 cells; test: shDMT1-Caco2 55Fe transport assay; format: cell-based; conditions: Caco-2
Description: Assay 2: shDMT1-Caco2 ^55Fe Transport Assay to Assess Ligand Ability in Transporting Fe (III)
Cells: DMT1-deficient Caco-2 cells (alias: “shDMT1,” or “4A” cells) were from Grillo et al. Science, 2017, and were cryopreserved in liquid nitrogen prior to use.
Reagents and supplies: ^55FeCl3 was obtained from PerkinElmer (Boston, MA). Iron(III) chloride (FeCl3) hexahydrate was obtained from Sigma. Dulbecco's Modified Eagle Medium (DMEM), fetal bovine serum (FBS), L-glutamine, MEM nonessential amino acids, penicillin-streptomycin, G418, formic acid, methanol, high-purity water, ammonium formate, dimethyl sulfoxide (DMSO) were purchased from Fisher Scientific. Propranolol, atenolol and carbutamide were obtained from Sigma-Aldrich Chemical Company (St Louis, MO). Scintillation cocktail was obtained from Research Product International Co. (Mount Prospect, IL). Stericup filter system (PES membrane, 0.22 um pore size) was purchased from Fisher Scientific. Corning item #3378 24-well transwell insert plates.
Test articles: known compounds hinokitiol and deferiprone were purchased from Sigma. They are tested side by side with the small molecule ligands disclosed in this application. DMSO stocks (10 mM, which is 1,000× of the 10 μM dose level) of hinokitiol or test articles were prepared. A stock solution of 25 mM deferiprone in DMSO was prepared. The DMSO stock solutions were stored at −20° C. or below when not in use.
The growth medium was prepared according to the following table
Apical media (serum free DMEM, 10 mM MES, pH 6.5) was prepared. Apical master mix media was prepared fresh with the addition of 200 nM ^55Fe before each experiment. For the negative control propranolol and atenolol wells, 200 nM of non-radioactive iron was used.
The basolateral media was serum-free DMEM, 10 mM HEPES, 2% bovine serum albumin (BSA), pH 7.4.
For each experiment, cells were seeded into the 24-well transwell plates (0.5 mL of 50,000 cells/mL) with growth media. The basolateral companion plate was loaded with 1 mL of growth media. After 12-24 hr, both the apical and basolateral chamber were replaced with growth media. The apical media was changed 3× per week for 21-28 days, including a media change exactly 48 hr before the assay date.
On the assay day, the TEER values were measured and the average TEER value was obtained. Individual wells with TEER value >35% lower than the average of all wells were excluded. For the qualified wells, the apical layer (twice) and basolaterial (once) chambers were washed with PBS. The basolateral companion plate was then filled with 1 mL of basolateral media. Via addition down the side-wall of the apical well, 300 μL per well of the apical assay master mix, with the indicated dose level of test article, was added. Each dose was tested in triplicate. The plates were incubated (5% CO2 and 90% humidity at 37° C.) for the indicated timepoints. At each indicated timepoint, the basolateral supernatant was gently mixed via pipetting, and 200 μL of the basolateral supernatant was transferred to scintillation vials. To each scintillation counting vial, 5 mL of scintillation cocktail fluid was added. For each scintillation vial, the radioactivity (CPM) was determined with liquid scintillation counter LS6500. The counting time per vial was 5 min.
All raw CPM values are divided by the average value of blank DMSO solution to give a fold of change above the DMSO value. The mean and standard deviation of each compound at each concentration level and at each time point measured was calculated to give the fold change (fc) value. For rank order compounds, the fc value of a ligand at 4 h time point is further divided by the fold change (fc) value of hinokitiol (a positive control compound) at an equimolar concentration to arrive at the FC (normalized fold of change) value. Data reported in Tables 1 and 2 is 4 hr time point FC=fc-ligand @ 3 uM/fc-hino @ 3 μM, and FC hino=1.

[2] = Ligand facilitated Fe(III) efflux from liposomes; format: biochemical; design: unit not given here; conditions: efflux rate k at 10 μM ligand concentration; ferrozine absorbance 562 nm, 120 min kinetic read
Procedure: Assay 1: Ligand Facilitated Fe(III) Efflux from Liposomes
Preparation of POPC (1 palmitoyl-2-oleoyl-sn-glycero-3 phosphocholine): Cholesterol Liposomes
A 1M buffer solution of MES and Tris was prepared by dissolving 121.14 grams of Tris base and 213.25 grams of MES hydrate in 500 mL of MilliQ water and adjusted to pH7.0 using an […] HCl solution before bringing the total volume of the solution to 1 L. A 500 mM solution of FeCl3 was prepared by dissolving 0.811 grams of anhydrous FeCl3 in 10 mL of a 0.1M H2SO4 aqueous solution. Inside buffer is prepared in a 50 mL falcon tube, which was added with 25 mL of MilliQ water, 1.61 g of sodium citrate, 1.5 mL of the above FeCl3 solution, and 2.5 mL of the 1M MES/Tris HCl buffer (pH=7.0), and finally additional MilliQ H2O to bring to a 50 mL final volume.
Lipid solution is prepared by dissolving 206.9 mg of POPC (1-palmitoyl-2-oleoyl-sn-glycero-3-phosphocholine) and 8.6 mg of cholesterol in 10 mL of ethanol.
The lipids solution and the inside buffer solution are independently loaded into 10 mL luer lock syringes for loading into a virgin cartridge on a Precision Nanosystems NanoAssembler to prepare unilamaller liposomes with the following parameters: 7.5 mL total volume, 1.5:1 mixing ratio of inside buffer:lipids solution, 8 mL/min flow rate, ambient temperature, 0.35 mL start waste, and 0.05 mL of end waste. 7.5 mL of liposomes is harvested for purification on a 6-inch long, 1-inch diameter Sephadex G-50 column wetted in 600 mM sodium ascorbate and 50 mM MES/Tris HCl pH 7.0 buffer. This buffer also serves as the column running buffer. The crude liposome solution is carefully loaded with minimal volume of running buffer above the top of the Sphadex, allowed to enter the matrix, and the column is run with the continued addition of running buffer. The eluting liposomes, observed as a milky and turbid solution, are collected until free iron begins to elute (observed as a deep purple color) and the fractions are pooled for phosphorus quantitation.
Determination of Phosphorus Content:
Phosphorus content of eluted liposomes was determined by the process outlined below. 10 μL of liposome elution and a running buffer blank are added to a 5 mL glass vial containing 450 μL of a 8.9 M aqueous H2SO4 solution, the mixture is heated to 225° C. for 25 minutes in an aluminum heat block to hydrolyze POPC and cooled for 5 minutes. 200 μL of a 30% hydrogen peroxide aqueous solution is added to each vial and heated to 225° C. for 25 minutes. After cooling, the phosphorus content was determined using an Abcam Phosphate Assay kit, with buffer subtracted phosphorus levels determined against a standard curve of phosphate included in the kit. Liposomes were diluted to 1 mM phosphate in Running Buffer for use in assays after accounting for dilutions made during phospholipid digestion.
Determination of the Iron Transporting Rate Constant of the Ligands:
Determination of the rate at which a small molecule ligand liberates (transport) Ferric iron from liposomes is performed in clear bottom black 384-well plates on a Spectramax i3x set to read the absorbance at 562 nm in the kinetic mode every 60 seconds for 120 minutes. 1 μL of serially diluted DMSO stock solution of a small molecule ligand is added to wells in triplicate to give the final concentrations of 40, 20, 10, 5, 2.5, and 1.25 uM of the ligand at 80 μL final volume, followed by addition of 1 μL of 100 mM Ferrozine in water to give a final concentration of 1 mM ferrozine. 78 μL of liposomes diluted to 1 mM phosphorus in running buffer is added to wells as quickly as possible (using a digital repeater multichannel pipette) with the kinetic read initiated as rapidly as possible after addition of liposomes to all wells. Typically, eight compounds at six concentrations are tested in triplicate simultaneously. […]

SMILES: CCOC(=O)N1CCC(c2ccc(O)c(=O)cc2)CC1
- Caco2 shDMT1 transport FC @ 3 μM, 4 h [1]: 0.01-0.5
- Liposome Fe transport kefflux at 10 μM [2]: 5-7.5

SMILES: Cc1ccc(O)c(=O)c(F)c1
- Caco2 shDMT1 transport FC @ 3 μM, 4 h [1]: 0.01-0.5
- Liposome Fe transport kefflux at 10 μM [2]: 0.1-5

SMILES: CCc1cccc(C)c(=O)c1O [drawing 202]
- Caco2 shDMT1 transport FC @ 3 μM, 4 h [1]: 0.01-0.5
- Liposome Fe transport kefflux at 10 μM [2]: 5-7.5

SMILES: O=c1ccccc(C2CCCCO2)c1O (stereo not drawn)
- Caco2 shDMT1 transport FC @ 3 μM, 4 h [1]: 1-5
- Liposome Fe transport kefflux at 10 μM [2]: 0.1-5

SMILES: O=c1cccc(O[C@@H]2CCOC2)cc1O (stereo in doubt)
- Caco2 shDMT1 transport FC @ 3 μM, 4 h [1]: 0.01-0.5
- Liposome Fe transport kefflux at 10 μM [2]: 0.1-5

SMILES: O=c1cccc(OC2COC2)cc1O
- Caco2 shDMT1 transport FC @ 3 μM, 4 h [1]: 0.01-0.5
- Liposome Fe transport kefflux at 10 μM [2]: 0.1-5

SMILES: CCc1ccc(C)c(=O)c(O)c1
- Caco2 shDMT1 transport FC @ 3 μM, 4 h [1]: 0.5-1
- Liposome Fe transport kefflux at 10 μM [2]: 5-7.5

SMILES: O=c1ccc([C@@H]2CCC[C@H]2O)ccc1O
- Caco2 shDMT1 transport FC @ 3 μM, 4 h [1]: 0.01-0.5
- Liposome Fe transport kefflux at 10 μM [2]: 7.5-10

SMILES: CC(C)c1cccc(=O)c(O)c1F [drawing 177]
- Caco2 shDMT1 transport FC @ 3 μM, 4 h [1]: 0.01-0.5
- Liposome Fe transport kefflux at 10 μM [2]: 10-25

SMILES: CCc1ccc(O)c(=O)c(C)c1
- Caco2 shDMT1 transport FC @ 3 μM, 4 h [1]: 1-5
- Liposome Fe transport kefflux at 10 μM [2]: 5-7.5

SMILES: O=c1ccccc(C2CCCO2)c1S (stereo not drawn)
- Caco2 shDMT1 transport FC @ 3 μM, 4 h [1]: 0.01-0.5
- Liposome Fe transport kefflux at 10 μM [2]: 7.5-10

SMILES: O=c1ccccc(OC2CCC2)c1O [drawing 233]
- Caco2 shDMT1 transport FC @ 3 μM, 4 h [1]: 0.01-0.5
- Liposome Fe transport kefflux at 10 μM [2]: 7.5-10

SMILES: O=c1ccccc(OCC2CC2)c1O [drawing 260]
- Caco2 shDMT1 transport FC @ 3 μM, 4 h [1]: 1-5
- Liposome Fe transport kefflux at 10 μM [2]: 10-25

SMILES: Cc1ccc(O)c(=O)c(C(F)(F)F)c1
- Caco2 shDMT1 transport FC @ 3 μM, 4 h [1]: 0.01-0.5
- Liposome Fe transport kefflux at 10 μM [2]: 10-25

SMILES: CCOc1ccc(O)c(=O)cc1
- Caco2 shDMT1 transport FC @ 3 μM, 4 h [1]: 0.01-0.5
- Liposome Fe transport kefflux at 10 μM [2]: 7.5-10

SMILES: O=c1ccc(C2CCCO2)ccc1O (stereo not drawn)
- Caco2 shDMT1 transport FC @ 3 μM, 4 h [1]: 0.01-0.5
- Liposome Fe transport kefflux at 10 μM [2]: 7.5-10

SMILES: O=c1ccc(C2CC3CCC(C2)O3)ccc1O (stereo not drawn)
- Caco2 shDMT1 transport FC @ 3 μM, 4 h [1]: 0.01-0.5
- Liposome Fe transport kefflux at 10 μM [2]: 0.1-5

SMILES: CC(C)c1ccc(F)c(=O)c(O)c1F
- Caco2 shDMT1 transport FC @ 3 μM, 4 h [1]: 0.01-0.5
- Liposome Fe transport kefflux at 10 μM [2]: 7.5-10

SMILES: Cc1ccc(C(C)C)cc(O)c1=O
- Caco2 shDMT1 transport FC @ 3 μM, 4 h [1]: 0.5-1
- Liposome Fe transport kefflux at 10 μM [2]: 0.1-5

SMILES: CC(C)Oc1cccc(=O)c(O)c1
- Caco2 shDMT1 transport FC @ 3 μM, 4 h [1]: 0.5-1
- Liposome Fe transport kefflux at 10 μM [2]: 5-7.5

SMILES: O=c1cccc(C2CCOCC2)cc1O
- Caco2 shDMT1 transport FC @ 3 μM, 4 h [1]: 0.01-0.5
- Liposome Fe transport kefflux at 10 μM [2]: 10-25

SMILES: O=c1c(F)cccc(C2CCCO2)c1O (stereo not drawn)
- Caco2 shDMT1 transport FC @ 3 μM, 4 h [1]: 0.01-0.5
- Liposome Fe transport kefflux at 10 μM [2]: 5-7.5

SMILES: Cc1ccc(C)c(=O)c(O)c1
- Caco2 shDMT1 transport FC @ 3 μM, 4 h [1]: 1-5
- Liposome Fe transport kefflux at 10 μM [2]: 0.1-5

SMILES: Cc1cc(C2CC2)ccc(O)c1=O
- Caco2 shDMT1 transport FC @ 3 μM, 4 h [1]: 1-5
- Liposome Fe transport kefflux at 10 μM [2]: 0.1-5

SMILES: O=c1cccc(C2CCCO2)cc1O (stereo not drawn)
- Caco2 shDMT1 transport FC @ 3 μM, 4 h [1]: 0.01-0.5
- Liposome Fe transport kefflux at 10 μM [2]: 7.5-10

SMILES: CC(=O)N1CCC(c2ccc(O)c(=O)cc2)CC1
- Caco2 shDMT1 transport FC @ 3 μM, 4 h [1]: 0.01-0.5
- Liposome Fe transport kefflux at 10 μM [2]: 5-7.5

SMILES: Cc1cccc(C(C)C)c(O)c1=O [drawing 205]
- Caco2 shDMT1 transport FC @ 3 μM, 4 h [1]: 0.5-1
- Liposome Fe transport kefflux at 10 μM [2]: 5-7.5

SMILES: Cc1c(O)c(=O)ccn1C [deferiprone, reference compound]
- Caco2 shDMT1 transport FC @ 3 μM, 4 h [1]: 0.02-0.03
- Liposome Fe transport kefflux at 10 μM [2]: 0

SMILES: Cc1ccc(O)c(=O)c(C)c1
- Caco2 shDMT1 transport FC @ 3 μM, 4 h [1]: 1-5
- Liposome Fe transport kefflux at 10 μM [2]: 5-7.5

SMILES: O=c1ccc(OC2COC2)ccc1O [drawing 187]
- Caco2 shDMT1 transport FC @ 3 μM, 4 h [1]: 0.01-0.5
- Liposome Fe transport kefflux at 10 μM [2]: 5-7.5

SMILES: CC(C)c1cccc(F)c(=O)c1O [drawing 179]
- Caco2 shDMT1 transport FC @ 3 μM, 4 h [1]: 0.01-0.5
- Liposome Fe transport kefflux at 10 μM [2]: 10-25

SMILES: Cc1ccc(C2CC2)cc(O)c1=O
- Caco2 shDMT1 transport FC @ 3 μM, 4 h [1]: 0.5-1
- Liposome Fe transport kefflux at 10 μM [2]: 7.5-10

SMILES: Cc1cc(C(C)C)ccc(O)c1=O [drawing 203]
- Caco2 shDMT1 transport FC @ 3 μM, 4 h [1]: 1-5
- Liposome Fe transport kefflux at 10 μM [2]: 10-25
